Laboratory results reported in US20020128193A1, “Retro-inverso prosaposin-derived peptides and use thereof” (priority 1999, published 2002).
Values after ≈ are worked out from the molar mass of the structure shown. Like-named read-outs stand apart in the source and are kept apart here. Non-standard residues stand in square brackets, D forms with d. Residues, ends and D or L forms follow the SMILES beside them. No end group written: not given here.

How the values were obtained:
[1] = test system: NS20Y neuroblastoma cells; settings: for Bioactive?: neurite outgrowth, 0-8 ng/ml peptide, 24 hours
Protocol: NS20Y neuroblastoma cells were grown in DMEM containing 10% fetal calf serum (FCS). Cells were removed with trypsin and plated in 30 mm petri dishes onto glass coverslips. […] Cells were cultured for an additional 24 hours, washed with PBS and fixed with Bouin's solution (saturated aqueous picric acid/formalin/acetic acid 15:5:1) for 30 minutes. Fixative was removed with PBS and neurite outgrowth was scored under a phase contrast microscope. […] At least 200 cells were scored in different portions of each dish to determine the percentage of neurite bearing cells and assays were performed in duplicate.
The ED50 value is defined as the half maximal concentration for maximal neurite outgrowth and neural protection in ng/ml.

[2] = Localization and integrity of 125I-peptide D8 in organs after intramuscular or oral administration; assay type: in vivo, Sprague-Dawley rat; settings: for D8 in tissue: Brain / D8 in tissue: Eyes / D8 in tissue: Heart / D8 in tissue: Kidney 1 / D8 in tissue: Kidney 2 / D8 in tissue: Liver / D8 in tissue: Lung / D8 in tissue: Muscle / D8 in tissue: Sciatic Nerve / D8 in tissue: Spinal Cord / D8 in tissue: Spleen: 200 μg/kg, rat; for crossing of the blood brain barrier: iodinated D8, rat, found in brain after oral administration
Protocol: Peptide D8 (SEQ ID NO: 4) was iodinated with ^125I according to the manufacturer's instructions (Pierce Chemical Co., Rockford, Ill.), and 200 μg/kg in PBS was injected intramuscularly into, or administered orally to, an adult male Sprague-Dawley rat. […] Results below give ng/g of […] in each tissue after conversion of cpm to nanograms (Table 2). All organs studied contained 90% or greater intact D8. The trophic concentration was estimated to be about 0.2 ng/g over 20 min.

EAE rats = assay: Reversal of demyelination in experimental allergic encephalomyelitis (EAE) rat model; assay type: in vivo, Lewis rats; settings: oral D8 100 μg/kg daily
Protocol: Experimental allergic encephalomyelitis (EAE) is a rat model of human multiple sclerosis (MS). In rats, EAE is induced by injecting foreign protein (guinea pig spinal cord) which results in inflammation and demyelination in white matter 11 days later.
EAE was induced in Lewis rats by injection of an emulsion of guinea pig spinal cord and complete Freund's adjuvant (CFA). At day 12-14, when weakness was evident, treatment with D8 (SEQ ID NO: 4) was begun (100 μg/kg orally in PBS via a stomach tube) and continued for 16 days every day. Six rats were injected with vehicle only. The number and size of demyelinating lesions (plaques) in the spinal cord per mm^2 was scored at […].
After 16 days of oral treatment with D8 (100 μg/kg/day) beginning after the onset of EAE at 14 days, spinal cord lesions were examined and the number of remyelinated axons per lesion were counted.

[3] = test system: neuroblastoma cells and mouse cerebellar explants; settings: cited from earlier work
[4] = test system: choline acetyltransferase; settings: neuroblastoma cells in vitro; cited from earlier work
neuroblastoma cells = neuroblastoma cells in vitro; cited from earlier work
myelination = settings: cited from earlier work
[5] = half maximal concentration for maximal neurite outgrowth and neural protection, NS20Y cells

Molecule: CC(C)C[C@@H](N)C(=O)N[C@H](CC(C)C)C(=O)N[C@H](CCC(=O)O)C(=O)N[C@H](CCC(=O)O)C(=O)N[C@H](CC(N)=O)C(=O)N[C@H](CC(N)=O)C(=O)N[C@H](CC(=O)O)C(=O)N[C@H](CC(C)C)C(=O)O [Peptide D8, D-leu-D-leu-D-glu-D-glu-D-asn-D-asn-D-asp-D-leu] (HELM PEPTIDE1{[dL].[dL].[dE].[dE].[dN].[dN].[dD].[dL]}$$$$V2.0; N-terminus and C-terminus assumed)
- ED50 [1]: 0.01 ng/mL (≈ 0.0104 nM)
- D8 in tissue: Brain ([2]; intramuscular, 20 min): 1.00 ng/g
- D8 in tissue: Eyes ([2]; intramuscular, 20 min): 13.9 ng/g
- D8 in tissue: Heart ([2]; intramuscular, 20 min): 9.8 ng/g
- D8 in tissue: Kidney 1 ([2]; intramuscular, 20 min): 395 ng/g
- D8 in tissue: Kidney 2 ([2]; intramuscular, 20 min): 405 ng/g
- D8 in tissue: Liver ([2]; intramuscular, 20 min): 8.0 ng/g
- D8 in tissue: Lung ([2]; intramuscular, 20 min): 43.0 ng/g
- D8 in tissue: Muscle ([2]; intramuscular, 20 min): 19.7 ng/g
- D8 in tissue: Sciatic Nerve ([2]; intramuscular, 20 min): 36.7 ng/g
- D8 in tissue: Spinal Cord ([2]; intramuscular, 20 min): 2.90 ng/g
- D8 in tissue: Spleen ([2]; intramuscular, 20 min): 41.7 ng/g
- crossing of the blood brain barrier [2]: can cross the blood brain barrier
- crossing of the blood brain barrier ([2]; listed as SEQ ID NO: 4): crosses the blood brain barrier
- D8 in tissue: Brain ([2]; oral, 25 min): 5.62 ng/g
- D8 in tissue: Eyes ([2]; oral, 25 min): 4.66 ng/g
- D8 in tissue: Heart ([2]; oral, 25 min): 3.26 ng/g
- D8 in tissue: Kidney 1 ([2]; oral, 25 min): 201 ng/g
- D8 in tissue: Kidney 2 ([2]; oral, 25 min): 217 ng/g
- D8 in tissue: Liver ([2]; oral, 25 min): 5.6 ng/g
- D8 in tissue: Lung ([2]; oral, 25 min): 526 ng/g
- D8 in tissue: Muscle ([2]; oral, 25 min): 3.2 ng/g
- D8 in tissue: Sciatic Nerve ([2]; oral, 25 min): 3.3 ng/g
- D8 in tissue: Spinal Cord ([2]; oral, 25 min): 2.15 ng/g
- D8 in tissue: Spleen ([2]; oral, 25 min): 4.9 ng/g
- weight loss versus control animals (EAE rats): no difference in weight loss

Molecule: CEFLVKEVTKLIDNNKTEKEIL [Peptide 22-mer, 22-mer peptide consisting of amino acids 8-29 of human saposin C]
- neurite outgrowth ([3]; in both neuroblastoma cells and mouse cerebellar explants): stimulates neurite outgrowth
- choline acetyltransferase activity [4]: stimulates choline acetyltransferase activity
- cell death (neuroblastoma cells): prevents cell death

Molecule: LLEETANNDL [Peptide D5]
- ED50 [1, 5]: 0.2 ng/mL
- Bioactive? ([1]; NS20Y cells): YES

Molecule: TXLIDNNATEEILY, X=D-alanine (T[dA]LIDNNATEEILY) [Peptide D1]
- ED50 [1, 5]: 1.00 ng/mL
- Bioactive? ([1]; NS20Y cells): YES

Molecule: YKEVTKLIDNNKTEKEIL [Peptide 18-mer]
- neurite outgrowth [3]: promotes neurite outgrowth

Molecule: YLIEETANNDLAT [Peptide D2]
- ED50 [1, 5]: 0.8 ng/mL
- Bioactive? ([1]; NS20Y cells): YES

Molecule: YLLEETANNDL [Peptide D4]
- ED50 [1, 5]: 0.4 ng/mL
- Bioactive? ([1]; NS20Y cells): YES

Molecule: YLLEETANNDLLAT [Peptide D3]
- ED50 [1, 5]: 0.4 ng/mL
- Bioactive? ([1]; NS20Y cells): YES

Molecule: YSLEKETKNNDLL [Peptide D6]
- ED50 [1, 5]: 0.27 ng/mL
- Bioactive? ([1]; NS20Y cells): YES

B1: saposin C: glycoprotein generated by proteolytic processing of prosaposin (protein, UniProt P07602 311-390, looked up)
Saposin-C: SDVYCEVCEFLVKEVTKLIDNNKTEKEILDAFDKMCSKLPKSLSEECQEVVDTYGSSILSILLEEVSPELVCSMLHLCSG
modifications: Saposin-C
notes: glycoprotein generated by proteolytic processing of prosaposin
- neurite outgrowth [3]: stimulate neurite outgrowth
- myelination (myelination): promote increased myelination
